Experimental data taken from patent US7803804B2, “Substituted pyrazines for use in the treatment of inflammatory or allergic conditions” (Novartis AG, priority 2005, dated 2010).

Biological target: T1, epithelial sodium channel (ENaC) (Homo sapiens, UniProt P37088+P51168+P51170)
T1 construct: host or cells: primary human bronchial epithelial cells (HBECs), differentiated at air-liquid interface
T1 sequence (P37088 1-669): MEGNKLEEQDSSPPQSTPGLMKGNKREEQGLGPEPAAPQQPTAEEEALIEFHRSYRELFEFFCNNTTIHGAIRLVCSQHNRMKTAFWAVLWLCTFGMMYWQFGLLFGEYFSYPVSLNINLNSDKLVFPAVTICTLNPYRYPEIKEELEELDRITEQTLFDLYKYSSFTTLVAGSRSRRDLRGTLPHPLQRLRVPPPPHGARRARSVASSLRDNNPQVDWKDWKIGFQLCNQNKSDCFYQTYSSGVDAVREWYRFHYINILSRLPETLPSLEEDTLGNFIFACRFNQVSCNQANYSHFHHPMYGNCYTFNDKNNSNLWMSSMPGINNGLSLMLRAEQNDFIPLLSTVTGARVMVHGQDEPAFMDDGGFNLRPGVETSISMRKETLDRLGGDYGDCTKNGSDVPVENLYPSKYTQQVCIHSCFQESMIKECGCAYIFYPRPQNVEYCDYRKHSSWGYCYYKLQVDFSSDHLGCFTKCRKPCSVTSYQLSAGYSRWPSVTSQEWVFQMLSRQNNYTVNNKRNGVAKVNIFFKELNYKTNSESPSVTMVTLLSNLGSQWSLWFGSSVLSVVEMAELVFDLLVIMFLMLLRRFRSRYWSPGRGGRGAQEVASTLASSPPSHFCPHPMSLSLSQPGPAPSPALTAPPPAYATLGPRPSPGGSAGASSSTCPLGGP
T1 sequence (P51168 1-640): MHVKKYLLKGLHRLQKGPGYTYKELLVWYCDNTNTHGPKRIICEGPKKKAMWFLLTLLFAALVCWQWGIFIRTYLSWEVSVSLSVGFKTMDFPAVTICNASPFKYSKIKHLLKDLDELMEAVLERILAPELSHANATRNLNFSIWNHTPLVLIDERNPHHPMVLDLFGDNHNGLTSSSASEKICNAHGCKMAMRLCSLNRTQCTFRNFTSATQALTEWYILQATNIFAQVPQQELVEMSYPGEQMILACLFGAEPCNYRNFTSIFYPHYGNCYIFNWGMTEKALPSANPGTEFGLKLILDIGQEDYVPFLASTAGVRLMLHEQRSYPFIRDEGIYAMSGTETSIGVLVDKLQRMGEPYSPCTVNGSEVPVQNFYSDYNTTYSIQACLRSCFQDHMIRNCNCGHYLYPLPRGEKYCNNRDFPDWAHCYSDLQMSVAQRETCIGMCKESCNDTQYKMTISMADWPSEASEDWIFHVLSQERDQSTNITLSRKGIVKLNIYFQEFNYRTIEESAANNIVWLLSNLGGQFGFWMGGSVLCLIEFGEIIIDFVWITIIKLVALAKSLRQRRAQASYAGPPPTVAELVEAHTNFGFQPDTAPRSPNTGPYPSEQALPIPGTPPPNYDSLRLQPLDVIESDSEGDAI
T1 sequence (P51170 1-649): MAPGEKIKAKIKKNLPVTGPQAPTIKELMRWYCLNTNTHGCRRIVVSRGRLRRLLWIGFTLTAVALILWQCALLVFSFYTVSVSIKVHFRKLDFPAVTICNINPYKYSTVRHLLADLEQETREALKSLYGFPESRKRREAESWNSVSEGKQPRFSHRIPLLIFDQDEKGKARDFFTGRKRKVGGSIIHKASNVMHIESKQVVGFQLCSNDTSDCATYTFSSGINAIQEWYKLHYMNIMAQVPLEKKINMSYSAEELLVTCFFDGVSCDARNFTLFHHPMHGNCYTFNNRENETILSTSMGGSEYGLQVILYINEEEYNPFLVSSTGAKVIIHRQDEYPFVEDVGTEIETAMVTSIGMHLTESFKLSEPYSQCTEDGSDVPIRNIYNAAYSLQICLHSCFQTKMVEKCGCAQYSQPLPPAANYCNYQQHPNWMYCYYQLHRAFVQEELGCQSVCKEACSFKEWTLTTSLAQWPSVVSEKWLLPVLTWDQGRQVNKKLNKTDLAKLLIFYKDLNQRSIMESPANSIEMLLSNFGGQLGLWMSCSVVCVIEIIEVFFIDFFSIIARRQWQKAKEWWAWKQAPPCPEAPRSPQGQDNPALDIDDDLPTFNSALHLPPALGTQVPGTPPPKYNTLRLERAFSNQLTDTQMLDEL
Test: Short circuit current (ISC) measurements in human bronchial epithelial cells, inhibition of the amiloride-sensitive ISC
Assay type: cell-based
Details: air-liquid interface culture, Ussing chamber, compound added to the apical chamber
Method: Compounds of formula (I) and their pharmaceutically acceptable salts, hereinafter referred to alternatively as “agents of the invention”, are useful as pharmaceuticals. In particular, the compounds have good ENaC blocker activity and may be tested in the following assays.
Human Bronchial Epithelial cells (HBECS) (Cambrex) were cultured under air-liquid interface conditions to provide a well differentiated mucociliary phenotype.
HBECs were cultured using a modification of the method described by Gray and colleagues (Gray et al., 1996). […]
Snapwell inserts were mounted in Vertical Diffusion Chambers (Costar) and were bathed with continuously gassed Ringer solution (5% CO2 in O2; pH 7.4) maintained at 37° C. containing (in mM): 120 NaCl, 25 NaHCO3, 3.3 KH2PO4, 0.8 K2HPO4, 1.2 CaCl2, 1.2 MgCl2, and 10 glucose. […] RT was measured by applying a 1- or 2-mV pulse at 30-s intervals and calculating RT by Ohm's law. Data were recorded using a PowerLab workstation (ADInstruments).
Test compounds were prepared as a 10 mM stock solution in DMSO (95%). […] At the completion of the concentration-response experiment, amiloride (10 μM) was added into the apical chamber to enable the total amiloride-sensitive current to be measured. […]
Results are expressed as the mean % inhibition of the amiloride-sensitive ISC. […] Cell inserts were typically run in duplicate and the IC50 calculated on the mean % inhibition data.

Row | Structure (SMILES) | IC50 [nM]
1 | N=C(NCC1CCC(CNC(=N)NC(=O)c2nc(Cl)c(N)nc2N)CC1)NC(=O)c1nc(Cl)c(N)nc1N (centres unmarked) [Example 2] | 5.7
2 | N=C(NC(=O)c1nc(Cl)c(N)nc1N)N[C@H]1CC[C@H](NC(=N)NC(=O)c2nc(Cl)c(N)nc2N)CC1 [Example 5] | 0.2
